The values that follow come from patent publication US20200345745A1 (University of Leicester, priority 2017, published 2020).

Assay [1] deals with recombinant P. fluorescens kynurenine 3-monooxygenase (PfKMO) (Pseudomonas fluorescens, UniProt Q84HF5, C252S/C461S). Kind of assay: biochemical. How it is done: Protein was expressed by growing transformed cells in auto induction LB medium (Fermentas) containing 100 μg/mL for 24 hours at 22° C. […] The cell lysate was centrifuged at 180,000 g for 1 hour at 4° C. to remove cell debris. The soluble cell lysate was loaded onto Q-sepharose column equilibrated with anion exchange buffer (20 mM HEPES pH 7.5, 1 mM DTT with 10 mM NaCl) and bound protein was eluted with a gradient (5 column volumes) of increasing NaCl concentration from 50 to 100 mM in anion exchange buffer. Fractions containing KMO were pooled and precipitated in 50% saturated ammonium sulphate by adding precipitation buffer (20 mM HEPES pH 7.5, 3 M ammonium sulphate, 1 mM DTT). The precipitated protein was pelleted by centrifugation at 12,000 g for 20 min, resuspended in a small volume of size exclusion buffer (20 mM HEPES pH 7.0, 150 mM sodium acetate, 1 mM DTT) and passed down a Superdex 75 column. Pure PfKMO was pooled and stored at −80° C.
(§1) KMO activity was measured in the presence of a range of compound concentrations by monitoring the consumption of NADPH at 340 nm upon addition of enzyme via a Cary 50 UV-Vis spectrophotometer (Agilent Technologies). All measurements were performed in triplicate. The IC50 values for each compound were obtained by plotting the percentage inhibition versus the inhibitor concentration and fitting to the Morrison equation using Origin 9.0 software (OriginLab, Northampton, Mass.).

Assay [2] has as its target T1, recombinant Homo Sapiens kynurenine 3-monooxygenase (HsKMO) (Homo sapiens, UniProt O15229).
T1 construct: The gene encoding full-length human KMO was synthesized; glutathione S-transferase (GST; vector pAcGHLT-A); made in house; host or cells: Hi5 insect cells (baculovirus)
Description: Inhibition of recombinant Homo sapiens KMO (NADPH consumption at 340 nm). Format: biochemical. Particulars: 0.5 μM HsKMO, L-Kyn 250 μM, NADPH 200 μM, pH 8.0, triplicate. How it is done: The gene encoding full-length human KMO was synthesized (GeneScript) and codon optimized for overexpression in […]. The gene was subcloned into the baculovirus transfer vector pAcGHLT-A-glutathione S-transferase as a Ndel-EcoRI fragment and transfected into Hi5 cells along with linearized baculovirus using the following sense and antisense primers: […]
Cultured cells were lysed in 20 mM potassium phosphate buffer, pH 7.5, 10% glycerol, 0.5% n-dodecyl β-D-maltoside (DDM), 150 mM NaCl, 7 mM 2-mercaptoethanol and 50 μM FAD supplemented with protease inhibitors (Sigma-Aldrich). Soluble lysate was incubated with 3 ml pre-equilibrated glutathione uniflow resin (Clontech). […] Fractions (0.5 ml) were eluted with buffer C (buffer B+33 mM glutathione) and fractions containing KMO pooled, concentrated and loaded onto a Superdex 200 (10/30) size-exclusion chromatography column. Pure KMO was pooled and stored at −80° C.
as §1

In another assay the test system is KMO. Particulars: literature value; read-out: IC50 (KMO inhibition); cited from earlier work.

Read-outs that look alike come from different tables or passages of the source.

T1 sequence (O15229 whole entry): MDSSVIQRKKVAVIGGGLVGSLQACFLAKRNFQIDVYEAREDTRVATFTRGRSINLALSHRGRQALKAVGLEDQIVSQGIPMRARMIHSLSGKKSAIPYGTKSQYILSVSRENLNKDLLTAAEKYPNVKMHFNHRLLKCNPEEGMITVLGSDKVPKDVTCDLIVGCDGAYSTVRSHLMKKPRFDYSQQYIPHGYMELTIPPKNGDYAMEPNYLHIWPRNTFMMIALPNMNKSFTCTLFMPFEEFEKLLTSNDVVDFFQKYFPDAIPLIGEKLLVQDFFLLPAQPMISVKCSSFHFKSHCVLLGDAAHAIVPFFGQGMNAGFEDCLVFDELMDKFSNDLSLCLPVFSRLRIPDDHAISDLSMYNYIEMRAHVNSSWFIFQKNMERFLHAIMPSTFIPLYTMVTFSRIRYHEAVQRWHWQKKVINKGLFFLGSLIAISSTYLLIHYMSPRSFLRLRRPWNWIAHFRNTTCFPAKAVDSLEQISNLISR
recombinant P. fluorescens kynurenine 3-monooxygenase (PfKMO), sequence (Q84HF5 whole entry C252S/C461S): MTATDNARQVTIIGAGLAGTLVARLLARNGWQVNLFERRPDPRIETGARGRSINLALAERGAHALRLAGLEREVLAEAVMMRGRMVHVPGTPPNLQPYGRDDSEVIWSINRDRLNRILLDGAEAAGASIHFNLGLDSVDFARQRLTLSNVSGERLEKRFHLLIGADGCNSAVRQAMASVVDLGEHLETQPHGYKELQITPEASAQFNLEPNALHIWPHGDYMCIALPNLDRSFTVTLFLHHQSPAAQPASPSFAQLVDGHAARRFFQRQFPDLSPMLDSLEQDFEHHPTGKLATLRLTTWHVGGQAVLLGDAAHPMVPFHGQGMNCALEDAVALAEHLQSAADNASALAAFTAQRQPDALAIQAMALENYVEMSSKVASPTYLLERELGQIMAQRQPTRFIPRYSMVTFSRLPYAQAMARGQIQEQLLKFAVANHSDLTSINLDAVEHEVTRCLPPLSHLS

With `Cc1cc2c(c(C)c1Cl)N(CC(=O)N(C)C)C(=O)CO2` [Example 6, 2-(6-chloro-5,7-dimethyl-3-oxo-1,4-benzoxazin-4-yl)-N,N-dimethyl-acetamide], the concentration for half-maximal inhibition (IC50) in assay [1] and in assay [2] was greater than 100 µM in each case. Take `Cc1cc2c(c(C)c1Cl)N(CC(=O)OC(C)(C)C)C(=O)CO2` [Example 4, tert-butyl 2-(6-chloro-5,7-dimethyl-3-oxo-1,4-benzoxazin-4-yl)acetate]: the IC50 in assay [1] and in assay [2] was greater than 100 µM throughout. Turning to `O=C(O)CCn1c(=O)oc2cc(Cl)c(Cl)cc21` [GSK180], in the assay on KMO, the IC50 (as a rule, the concentration at which inhibition is half-maximal) is […]. Take `Cc1cc2c(c(C)c1Cl)N(Cc1nn[nH]n1)C(=O)CO2` [Example 9, 6-chloro-5,7-dimethyl-4-(2H-tetrazol-5-ylmethyl)-1,4-benzoxazin-3-one]: the IC50 in assay [1] (read-out: IC50 for PfKMO inhibition, 0.1 μM PfKMO, L-Kyn 250 μM, NADPH 200 μM, pH 7.5, triplicate) worked out at 17 µM; in assay [2], 1.28 µM. Take `COC(=O)CN1C(=O)COc2cc(C)c(Cl)c(C)c21` [Example 1, methyl 2-(6-chloro-5,7-dimethyl-3-oxo-1,4-benzoxazin-4-yl)acetate]: the IC50 in assay [1] and in assay [2] was greater than 100 µM each time. For the compound `Cc1cc2c(c(C)c1Cl)N(CC(N)=O)C(=O)CO2` [Example 8, 2-(6-chloro-5,7-dimethyl-3-oxo-1,4-benzoxazin-4-yl)acetamide], the IC50 in assay [1] and in assay [2] was greater than 100 µM in each case.

Regarding `CNC(=O)CN1C(=O)COc2cc(C)c(Cl)c(C)c21` [Example 7], the IC50 in assay [1] and in assay [2] was greater than 100 µM in each case. `Cc1cc2c(c(C)c1Cl)N(CC(=O)OC(C)C)C(=O)CO2` [Example 3, isopropyl 2-(6-chloro-5,7-dimethyl-3-oxo-1,4-benzoxazin-4-yl)acetate]: the IC50 in assay [1] and in assay [2] was greater than 100 µM throughout.

As to `O=C(O)[C@H]1C[C@@H]1C(=O)c1ccc(Cl)c(Cl)c1` [UPF-648], the concentration for half-maximal inhibition (IC50) in the assay on KMO was 0.02 µM. Take `CCOC(=O)CN1C(=O)COc2cc(C)c(Cl)c(C)c21` [Example 2, ethyl 2-(6-chloro-5,7-dimethyl-3-oxo-1,4-benzoxazin-4-yl)acetate]: the 50% inhibitory concentration (IC50) in assay [1] and in assay [2] was greater than 100 µM each time.

In the case of `NC(CC(=O)c1ccc(Cl)c(Cl)c1)C(=O)O` (racemic) [(R,S)-3,4-dichlorobenzoylalanine], the IC50 in the assay with KMO is 0.9 µM.
